Source: patent US10988523B2, “Modified lipidated Relaxin B chain peptides and their therapeutic use” (Sanofi, priority 2018, dated 2021)
*1 amine or outer side, *2 acyl side, *3 side chain or, on linkers, in order; H or OH if unused. Where a SMILES comes first, the peptide text is derived from it. Side-chain parts run from the residue outwards. [ ]: non-standard residue; d: D form. The star is where a group is joined. PEG12 = NCCOCCOCCOCCOCCOCCOCCOCCOCCOCCOCCOCCOCCC(=O)O; γGlu = O=C(O)[C@H](CCC(=O)[*:2])N[*:1]; Stearoyl = CCCCCCCCCCCCCCCCCC(=O)*; Palmitoyl = CCCCCCCCCCCCCCCC(=O)*; αMeK = C[C@](N)(CCCCN)C(=O)O; Nle = CCCC[C@H](N)C(=O)O; AEEA = NCCOCCOCC(=O)O; Aib = CC(C)(N)C(=O)O

Tests used:
RXFP1 = biological target: T1, RXFP1 (Homo sapiens, UniProt Q9HBX9); assay: OVCAR5 cAMP assay (HTRF), RXFP1 agonist activity; type: cell-based; details: for EC50: OVCAR5 cells, cAMP HTRF, read-out: EC50 (nM), OVCAR 5 cells (cAMP); for Emax: OVCAR-5, maximal cAMP relative to H2-relaxin maximum (100%), read-out: EMax, OVCAR 5 cells (cAMP)
T1 construct: OVCAR5 cells expressing endogenous RXFP1; endogenous in cells; host or cells: OVCAR5 cells
T1 sequence (Q9HBX9 1-757): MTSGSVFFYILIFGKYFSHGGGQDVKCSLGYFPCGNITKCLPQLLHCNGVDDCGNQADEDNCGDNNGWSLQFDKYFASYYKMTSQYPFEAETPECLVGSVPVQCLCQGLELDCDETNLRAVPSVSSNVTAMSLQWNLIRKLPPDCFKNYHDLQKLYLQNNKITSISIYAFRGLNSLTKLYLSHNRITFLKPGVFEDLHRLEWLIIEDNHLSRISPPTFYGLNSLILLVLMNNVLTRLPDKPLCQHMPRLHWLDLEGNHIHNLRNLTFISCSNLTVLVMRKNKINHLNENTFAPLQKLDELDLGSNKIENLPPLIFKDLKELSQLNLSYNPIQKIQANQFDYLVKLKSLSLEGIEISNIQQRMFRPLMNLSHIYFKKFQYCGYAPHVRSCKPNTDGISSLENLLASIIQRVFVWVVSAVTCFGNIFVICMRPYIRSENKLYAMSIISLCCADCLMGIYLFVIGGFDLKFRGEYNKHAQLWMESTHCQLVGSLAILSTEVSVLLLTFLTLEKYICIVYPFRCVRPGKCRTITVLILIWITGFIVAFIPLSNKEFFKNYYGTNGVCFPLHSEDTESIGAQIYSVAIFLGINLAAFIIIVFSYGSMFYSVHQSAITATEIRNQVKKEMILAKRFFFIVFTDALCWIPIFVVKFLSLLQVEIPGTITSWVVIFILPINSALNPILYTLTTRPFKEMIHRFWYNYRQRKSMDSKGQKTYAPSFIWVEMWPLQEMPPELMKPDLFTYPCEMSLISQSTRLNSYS
How it was run: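 cAMP accumulation readout: after 1 mM IBMX for 40 min, endogenous-RXFP1 OVCAR5 cells got rising peptide concentrations without FCS, 30 min, 37° C, then lysis with HTRF cAMP reagents. Nonlinear regression gave EC50; Emax expressed relative to H2-relaxin maximum, same occasion.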

[1] = Stability testing of peptides in human plasma or blood; type: in vitro ADME; details: 37° C.; for Human Plasma stability % remaining T = 0: human plasma or blood, T = 0 (reference), 5 μM
How it was run: (§1)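 Peptide at 5 µM final was incubated at 37 °C in heparinized rat or human plasma or blood, sampled up to 4 h, and extracted with acetonitrile/1% TFA. HPLC peak areas relative to t0 give % remaining peptide.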

[2] = Stability testing of peptides in rat plasma or blood; type: in vitro ADME; details: 37° C.; for Rat plasma stability % remaining T = 0: rat plasma or blood, T = 0 (reference), 5 μM
How it was run: as §1

[3] = Pharmacokinetic (PK) determination after i.v. or s.c. administration to rats; type: in vivo, Sprague Dawley rats; details: Rat PK; for T½ / C0 / half-life: 1 mg/kg i.v.; for C0 / half-life: iv; for C0: extrapolated plasma concentration at t=0, read-out: C0; for Cmax / Tmax: 3 mg/kg s.c.; for bioavailability: subcutaneous; for half-life: read-out: T½ (converted)
How it was run: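 Non-compartmental analysis of plasma LC/MS data (protein precipitation, BLQ taken as zero) gave T½, C0 (i.v.), Cmax/Tmax (s.c.) and F% from dose-corrected AUCs. Dosing: 3 mg/kg s.c. or 1 mg/kg i.v. in PBS to Sprague Dawley rats, purity- and salt-corrected.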

[4] = human plasma, read-out: Human Plasma stability % remaining 1 h
[5] = human plasma, read-out: Human Plasma stability % remaining 4 h
[6] = rat plasma, read-out: Rat plasma stability % remaining 1 h
[7] = rat plasma, read-out: Rat plasma stability % remaining 4 h
[8] = Sprague Dawley, plasma, 3 mg/kg s.c. vs 1 mg/kg i.v., dose-corrected AUC ratio

| EC50 (RXFP1) [nM] | Emax (RXFP1) [%] | Human Plasma stability % remaining T = 0 [1] [%] | remaining at 1 h, 5 µM [1, 4] [%] | remaining at 4 h, 5 µM [1, 5] [%] | Rat plasma stability % remaining T = 0 [2] [%] | remaining at 1 h, 5 µM [2, 6] [%] | remaining at 4 h, 5 µM [2, 7] [%] | T½ [3] [h] | C0 ([3]; Sprague Dawley) [nM] | Cmax ([3]; Sprague Dawley, plasma, sc) [nM] | Tmax ([3]; Sprague Dawley, plasma, sc) [h] | bioavailability [3, 8] [%] | half-life ([3]; Sprague Dawley, plasma) [h] | remaining at 1 h, 5 µM ([1]; whole blood, human blood, read-out: Human stability in blood % remaining 1 h) [%] | remaining at 4 h, 5 µM ([1]; whole blood, human blood, read-out: Human stability in blood % remaining 4 h) [%] | remaining at 1 h, 5 µM ([2]; whole blood, rat blood, read-out: Rat stability in blood % remaining 1 h) [%] | remaining at 4 h, 5 µM ([2]; whole blood, rat blood, read-out: Rat stability in blood % remaining 4 h) [%] | Cmax [3] [nM] | F % ([3]; 3 mg/kg s.c. vs 1 mg/kg i.v., dose-corrected AUC ratio) [%] | Structure (SMILES) |
| --- | --- | --- | --- | --- | --- | --- | --- | --- | --- | --- | --- | --- | --- | --- | --- | --- | --- | --- | --- | --- |
| 0.61 | 100 | 100 | 99 | 96 | 100 | 93 | 80 | 4.30 | 4200 | 2500 | 8 | 60 |  |  |  |  |  |  |  | CCCCCCCCCCCCCCCCCC(=O)N[C@@H](CCC(=O)N[C@@H](CCC(=O)N[C@@H](CCC(=O)NCCCC[C@H](NC(=O)CCOCCOCCOCCOCCOCCOCCOCCOCCOCCOCCOCCOCCNC(=O)[C@H](CCCCNC(C)=O)NC(=O)[C@H](CCCCN)NC(=O)[C@H](CCCNC(=N)N)NC(=O)C(C)(C)NC(=O)[C@H](CO)NC(=O)[C@H](Cc1c[nH]c2ccccc12)NC(=O)[C@@H](NC(=O)[C@H](CO)NC(=O)[C@H](CCCC)NC(=O)CNC(=O)[C@H](CCC(=O)O)NC(=O)C(C)(C)NC(=O)C(C)(C)NC(=O)[C@@H](NC(=O)[C@H](CCCCNC(C)=O)NC(=O)[C@H](C)NC(=O)[C@H](CCCNC(=N)N)NC(=O)[C@@H](NC(=O)[C@H](CCCCN)NC(=O)[C@H](CCC(=O)O)NC(=O)[C@H](CCCNC(=N)N)NC(=O)CNC(=O)[C@H](CCC(=O)O)NC(=O)[C@H](CC(C)C)NC(C)=O)C(C)C)[C@@H](C)CC)[C@@H](C)O)C(N)=O)C(=O)O)C(=O)O)C(=O)O [compound 33] (Ac-LEGREKVRAK(Ac)I[Aib][Aib]EG[Nle]STWS[Aib]RKK(Ac)[PEG12]K([γGlu-γGlu-γGlu-Stearoyl])-NH2) |
|  | 83 | 100 | 100 | 11 | 100 | 96 | 101 |  | 4020 | 1340 | 6 | 55 | 7.9 |  |  |  |  |  |  | CCCCCCCCCCCCCCCC(=O)N[C@@H](CCC(=O)N[C@@H](CCC(=O)N[C@@H](CCC(=O)NCCOCCOCC(=O)NCCOCCOCC(=O)NCCCC[C@H](NC(=O)[C@H](CCCCN)NC(=O)[C@H](CCCNC(=N)N)NC(=O)C(C)(C)NC(=O)[C@H](CO)NC(=O)[C@H](Cc1c[nH]c2ccccc12)NC(=O)[C@@H](NC(=O)[C@H](CO)NC(=O)[C@H](CCCC)NC(=O)CNC(=O)[C@H](CCC(=O)O)NC(=O)C(C)(C)NC(=O)C(C)(C)NC(=O)[C@@H](NC(=O)[C@H](CCC(N)=O)NC(=O)[C@H](C)NC(=O)[C@H](CCCNC(=N)N)NC(=O)[C@@H](NC(=O)[C@H](CCCCN)NC(=O)[C@H](CCC(=O)O)NC(=O)[C@H](CCCNC(=N)N)NC(=O)CNC(=O)[C@H](CCC(=O)O)NC(=O)[C@H](CC(C)C)NC(C)=O)C(C)C)[C@@H](C)CC)[C@@H](C)O)C(N)=O)C(=O)O)C(=O)O)C(=O)O [compound 58] (Ac-LEGREKVRAQI[Aib][Aib]EG[Nle]STWS[Aib]RKK([AEEA-AEEA-γGlu-γGlu-γGlu-Palmitoyl])-NH2) |
| 0.01 | 87 | 100 |  |  | 100 |  |  |  | 7760 | 780 | 4 | 87 | 10 | 107 | 106 | 107 | 99 |  |  | CCCCCCCCCCCCCCCC(=O)N[C@@H](CCC(=O)N[C@@H](CCC(=O)N[C@@H](CCC(=O)N[C@@H](CCC(=O)NCCCC[C@H](NC(=O)COCCOCCNC(=O)COCCOCCNC(=O)COCCOCCNC(=O)COCCOCCNC(=O)[C@H](CCCCNC(C)=O)NC(=O)[C@H](C)NC(=O)[C@H](CCCNC(=N)N)NC(=O)[C@](C)(CCCCN)NC(=O)[C@H](CO)NC(=O)[C@H](Cc1ccccc1)NC(=O)[C@@H](NC(=O)[C@H](CO)NC(=O)[C@H](CCC(N)=O)NC(=O)CNC(=O)[C@H](CCC(=O)O)NC(=O)C(C)(C)NC(=O)C(C)(C)NC(=O)[C@@H](NC(=O)[C@H](CCCCNC(C)=O)NC(=O)[C@H](C)NC(=O)[C@H](CCCNC(=N)N)NC(=O)[C@@H](NC(=O)[C@H](CCCCN)NC(=O)[C@H](CCC(=O)O)NC(=O)[C@H](CCCNC(=N)N)NC(=O)CNC(=O)[C@H](CCC(=O)O)NC(=O)[C@H](CC(C)C)NC(C)=O)C(C)C)[C@@H](C)CC)[C@@H](C)O)C(N)=O)C(=O)O)C(=O)O)C(=O)O)C(=O)O [compound 170] (Ac-LEGREKVRAK(Ac)I[Aib][Aib]EGQSTFS[αMeK]RAK(Ac)[AEEA][AEEA][AEEA][AEEA]K([γGlu-γGlu-γGlu-γGlu-Palmitoyl])-NH2) |
| 0.22 | 84 | 100 | 111 | 111 | 100 | 101 | 114 | 3.90 | 2600 |  | 8 |  |  |  |  |  |  | 1500 | 74 | CCCCCCCCCCCCCCCCCC(=O)N[C@@H](CCC(=O)N[C@@H](CCC(=O)N[C@@H](CCC(=O)NCCOCCOCC(=O)NCCOCCOCC(=O)NCCOCCOCC(=O)NCCCC[C@H](NC(=O)[C@H](CCCCNC(C)=O)NC(=O)[C@H](CCCCN)NC(=O)[C@H](CCCNC(=N)N)NC(=O)C(C)(C)NC(=O)[C@H](CO)NC(=O)[C@H](Cc1c[nH]c2ccccc12)NC(=O)[C@@H](NC(=O)[C@H](CO)NC(=O)[C@H](CCCC)NC(=O)CNC(=O)[C@H](CCC(=O)O)NC(=O)C(C)(C)NC(=O)C(C)(C)NC(=O)[C@@H](NC(=O)[C@H](CCCCNC(C)=O)NC(=O)[C@H](C)NC(=O)[C@H](CCCNC(=N)N)NC(=O)[C@@H](NC(=O)[C@H](CCCCN)NC(=O)[C@H](CCC(=O)O)NC(=O)[C@H](CCCNC(=N)N)NC(=O)CNC(=O)[C@H](CCC(=O)O)NC(=O)[C@H](CC(C)C)NC(C)=O)C(C)C)[C@@H](C)CC)[C@@H](C)O)C(N)=O)C(=O)O)C(=O)O)C(=O)O [compound 81] (Ac-LEGREKVRAK(Ac)I[Aib][Aib]EG[Nle]STWS[Aib]RKK(Ac)K([AEEA-AEEA-AEEA-γGlu-γGlu-γGlu-Stearoyl])-NH2) |
